Values of other authors in patent publication EP2387991A1, “Vitamin E succinate stabilized pharmaceutical compositions, methods for the preparation and the use thereof” (Adventrx Pharmaceuticals, Inc., priority 2006, dated 2007).

solubility in water: practically insoluble
SMILES: CC(=O)O[C@@]12CO[C@@H]1C[C@H](O)[C@@]1(C)C(=O)[C@H](O)C3=C(C)[C@@H](OC(=O)[C@H](O)[C@@H](NC(=O)OC(C)(C)C)c4ccccc4)C[C@@](O)([C@@H](OC(=O)c4ccccc4)[C@H]21)C3(C)C [Docetaxel, (2R,3S)-N-carboxy-3-phenylisoserine, N-tert-butyl ester, 13-ester with 5β-20-epoxy-1,2α-,4,7β,10β,13α-hexahydroxytax-11-en-9-one 4-acetate 2-benzoate, trihydrate]
